The results in this text go back to ChEMBL document CHEMBL1140955, “Synthesis and in vitro biological evaluation of valine-containing prodrugs derived from clinically used HIV-protease inhibitors” (Eur J Med Chem, 2008).

In series [1] the test system is Human immunodeficiency virus 1. Nature of the series: Antiviral activity against HIV1 LAI infected in human CEM-SS cells assessed as reverse transcriptase activity after 5 days by MTT assay. The class given is functional, organism-based. Particulars: Human immunodeficiency virus 1, LAI, 120 h. On the technique in general: Formazan colour is commonly taken as a measure of viable cells.

A short description of series [2]: Apparent permeability from basolateral to apical side of human Caco-2 cells at 80 uM in donor chamber after 3 hrs. The format is ADME, cell-based. The settings on record: read-out: permeability. On the technique in general: Passage across Caco-2 layers is used to estimate intestinal permeability.
Series [3] concerns Caco-2. The series can be described thus: Permeability from apical to basolateral side of human Caco-2 cells assessed as ratio of prodrug concentration in receiver to prodrug concentration in donor at 80 uM in donor chamber after 3 hrs. Particulars: caco-2, 3 h. The class given is ADME, cell-based.
A short description of series [4]: Apparent permeability from apical to basolateral side of human Caco-2 cells at 80 uM in donor chamber after 3 hrs. The format is ADME, cell-based. Particulars: read-out: permeability.
In series [5] the test system is Caco-2. The series can be described thus: Permeability from basolateral to apical side of human Caco-2 cells assessed as ratio of prodrug concentration in receiver to prodrug concentration in donor at 80 uM in donor chamber after 3 hrs. The class given is ADME, cell-based. Particulars: caco-2, 3 h.
Series [6] is described as follows: Cytotoxicity against human MT4 cells after 4 days by MTT assay. The class given is cell-based.
For series [7], the system named is Human immunodeficiency virus 1. Nature of the series: Antiviral activity against HIV1 3B infected in human MT4 cells assessed as reverse transcriptase activity after 5 days by MTT assay. Particulars: Human immunodeficiency virus 1, 3B, MT4, 120 h.
Series [8] concerns Human immunodeficiency virus 1. The series can be described thus: Antiviral activity against HIV1 LAI infected in human CEM-SS cells assessed as ratio of IC50 for prodrug to IC50 for parent compound. The format is functional.
Series [9] is described as follows: Cytotoxicity against human CEM-SS cells after 5 days by MTT assay. The format is cell-based.
The nature of series [10]: Chemical stability assessed as hydrolysis half life at pH 7.3. The class given is physicochemical. The settings on record: buffer.
Series [11] has as its system Caco-2. The series can be described thus: Permeability from basolateral to apical side of human Caco-2 cells assessed as ratio of prodrug concentration in receiver to prodrug concentration in donor at 185 uM in donor chamber after 3 hrs. The class given is ADME, cell-based. The settings on record: caco-2, 3 h.
A short description of series [12]: Apparent permeability from basolateral to apical side of human Caco-2 cells at 185 uM in donor chamber after 3 hrs. The format is ADME, cell-based. The settings on record: read-out: permeability.
Series [13] relates to Human immunodeficiency virus 1. Nature of the series: Antiviral activity against HIV1 3B infected in human MT4 cells assessed as ratio of IC50 for prodrug to IC50 for parent compound.
For series [14], the system named is Caco-2. The series can be described thus: Permeability from apical to basolateral side of human Caco-2 cells assessed as ratio of prodrug concentration in receiver to prodrug concentration in donor at 330 uM in donor chamber after 3 hrs. The class given is ADME, cell-based. Particulars: caco-2, 3 h.
For series [15], the system named is Caco-2. Nature of the series: Permeability from basolateral to apical side of human Caco-2 cells assessed as ratio of prodrug concentration in receiver to prodrug concentration in donor at 330 uM in donor chamber after 3 hrs. The class given is ADME, cell-based. The settings on record: caco-2, 3 h.
Series [16] in a line: Apparent permeability from basolateral to apical side of human Caco-2 cells at 330 uM in donor chamber after 3 hrs. The format is ADME, cell-based. The settings on record: read-out: permeability.
The nature of series [17]: Apparent permeability from apical to basolateral side of human Caco-2 cells at 330 uM in donor chamber after 3 hrs. The class given is ADME, cell-based. Particulars: read-out: permeability.

As to `Cc1c(O)cccc1C(=O)N[C@@H](CSc1ccccc1)[C@H](O)CN1C[C@H]2CCCC[C@H]2C[C@H]1C(=O)NC(C)(C)C`, in series [1], the IC50 worked out at 2 nM. The Papp B→A at 3 h, 80 µM in series [2] was 2.51 ×10⁻⁶ cm/s. In addition, the Activity is given as 2.7% in the series on Caco-2 [3] and 6.3% with Caco-2 [5]. Besides, the Papp A→B at 3 h, 80 µM in series [4] turned out to be 1.03 ×10⁻⁶ cm/s.
In the case of `Cc1c(OC(=O)CCCCCNC(=O)[C@@H](N)C(C)C)cccc1C(=O)N[C@@H](CSc1ccccc1)[C@H](O)CN1C[C@H]2CCCC[C@H]2C[C@H]1C(=O)NC(C)(C)C.O=C(O)C(F)(F)F`, the IC50 was determined as 94 nM in [1] and 230 nM in [7]. Moreover, the 50% cytotoxic concentration (CC50) at 96 h in series [6] is 10000 nM. Moreover, the “Ratio IC50” value in [8] amounted to 47. Also, the CC50 at 120 h in series [9] is over 10000 nM. Further, the half-life in series [10] was 72 h.
With `CC(C)[C@H](N)C(=O)NCCCCCC(=O)O[C@@H]1Cc2ccccc2[C@@H]1NC(=O)[C@H](Cc1ccccc1)C[C@H](O)CN1CCN(Cc2cccnc2)C[C@H]1C(=O)NC(C)(C)C.O=C(O)C(F)(F)F`, the IC50 in [1] turned out to be 36 nM; in series [7], 230 nM. Further, the Activity in the series on Caco-2 [11] is 9%. This molecule also came in with a CC50 at 96 h in series [6] of 47000 nM. The figures for the “Ratio IC50” value in series [8] and in [13] were “>=3.6” and 10, respectively. The CC50 at 120 h in series [9] was over 10000 nM. Also, the Papp B→A at 3 h, 185 µM in series [12] stood at 2.92 ×10⁻⁶ cm/s. Further, the half-life in [10] was 72 h.
For `Cc1c(OC(=O)CCCCCNC(=O)[C@@H](N)C(C)C)cccc1C(=O)N[C@@H](CSc1ccccc1)[C@@H](CN1C[C@H]2CCCC[C@H]2C[C@H]1C(=O)NC(C)(C)C)OC(=O)CCCCCNC(=O)[C@H](N)C(C)C.O=C(O)C(F)(F)F.O=C(O)C(F)(F)F`, the IC50 in [1] stood at 15500 nM. In addition, the midpoint of cytotoxicity in series [6], the CC50 at 96 h, lay at 4800 nM. Moreover, the “Ratio IC50” value in [8] came out at 7750. Also, half-maximal cytotoxicity in series [9] (CC50 at 120 h) was put at 5000 nM. Moreover, the half-life in series [10] is 82 h.
Take `CC(C)[C@H](N)C(=O)O[C@@H]1Cc2ccccc2[C@@H]1NC(=O)[C@H](Cc1ccccc1)C[C@H](O)CN1CCN(Cc2cccnc2)C[C@H]1C(=O)NC(C)(C)C.O=C(O)C(F)(F)F`: the half-inhibitory concentration (IC50) in [1] was found to be 17 nM; in series [7], 150 nM. In addition, in [6], the CC50 at 96 h was over 100000 nM. The Activity in the series with Caco-2 [14] came to 15.6%; with Caco-2 [15] it was 18.1%. The Papp B→A at 3 h, 330 µM in series [16] is 7.37 ×10⁻⁶ cm/s. The “Ratio IC50” value in series [8] is given as “>=1.7”; in series [13] it was 7. In series [9], this molecule had a CC50 at 120 h of over 100000 nM. Moreover, the Papp A→B at 3 h, 330 µM in series [17] amounted to 6.44 ×10⁻⁶ cm/s. For the same molecule, in [10], the half-life is 46 h.

By IC50 is commonly meant the concentration needed to halve the response being measured. The CC50 is the concentration giving 50% cytotoxicity. By half-life is commonly meant the time needed for the level to fall by half in the phase considered.
